In assay [1] the target is T1, h-TGR5 (Homo sapiens, UniProt Q8TDU6).
T1 construct: expressed in transfected cells
T1 sequence (Q8TDU6 1-330): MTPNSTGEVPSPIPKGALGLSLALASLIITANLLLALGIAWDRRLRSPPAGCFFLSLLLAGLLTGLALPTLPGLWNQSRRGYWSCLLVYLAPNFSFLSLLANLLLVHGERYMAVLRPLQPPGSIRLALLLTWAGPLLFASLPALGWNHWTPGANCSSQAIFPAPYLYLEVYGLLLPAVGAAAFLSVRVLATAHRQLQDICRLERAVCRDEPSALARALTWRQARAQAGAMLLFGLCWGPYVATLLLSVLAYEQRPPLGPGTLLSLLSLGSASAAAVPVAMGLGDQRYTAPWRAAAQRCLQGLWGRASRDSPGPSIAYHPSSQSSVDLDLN
Description: TGR5 cAMP Assay using Cisbio cAMP Dynamic2 htrf kit (hTGR5CRE-luc HEK 293 cells). The following applies: h-TGR5 cAMP EC50, Table 1; read-out: cAMP (EC50). It is filed as cell-based. The gist of the method: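 […], 4000 hTGR5CRE-luc HEK 293 cells per well, with 0.5 mM IBMX and d2-cAMP, were incubated 30 min at room temperature with compounds in 8-point half-log series, in quadruplicate.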

The target of assay [2] is T2, human TGR5 (h-TGR5) (Homo sapiens, UniProt Q8TDU6).
T2 construct: expressed in transfected cells
T2 sequence (Q8TDU6 1-330): T1 sequence (Q8TDU6 1-330)
Description: TGR5/CRE-Luciferiase Assay (HEK 293 hTGR5/CRE-Luc cells). The following applies: h-TGR5 CRE-Luc EC50, Table 1; read-out: CRE-Luc (EC50). It is filed as cell-based. The method, boiled down: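 HEK293 cells stably carrying hTGR5 and a CRE-luciferase reporter were exposed to serially diluted compounds (diluted in DMEM with 5% DMSO) for 6 h. Cells were then lysed in luciferase buffer, luminescence was read, and EC50 values were derived from dose-response curves.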

On to `COc1ccc(C(C)(C)c2cnc(SCc3cc(F)cc(Cl)c3)n2-c2ccc(F)cc2)cc1OC` [5-{1-[3,4-bis(methyloxy)phenyl]-1-methylethyl}-2-{[(3-chloro-5-fluorophenyl)methyl]thio}-1-(4-fluorophenyl)-1H-imidazole], for which the EC50 in assay [1] and in assay [2] was < 0.1 µM each time.

As to `COc1cc(-n2c(C(C)(C)c3ccc(S(N)(=O)=O)c(Cl)c3)cnc2SCc2c(F)cc(C(=O)O)cc2F)ccc1F` [4-{[(5-{1-[4-(aminosulfonyl)-3-chlorophenyl]-1-methylethyl}-1-[4-fluoro-3-(methyloxy)phenyl]-1H-imidazol-2-yl)thio]methyl}-3,5-difluorobenzoic acid], the half-maximal effective concentration (EC50) in assay [1] and in assay [2] was < 0.1 µM throughout.

In the case of `COc1cc(-n2c(C(C)(C)c3ccc(S(N)(=O)=O)c(Cl)c3)cnc2SCc2ccc(C(=O)NCCC(=O)O)cc2F)ccc1F` [N-[(4-{[(5-{1-[4-(aminosulfonyl)-3-chlorophenyl]-1-methylethyl}-1-[4-fluoro-3-(methyloxy)phenyl]-1H-imidazol-2-yl)thio]methyl}-3-fluorophenyl)carbonyl]-beta-alanine], the EC50 in assay [1] and in assay [2] was < 0.1 µM each time.

In the case of `CC(C)(c1ccc(Cl)c(Cl)c1)c1cnc(SCc2c(F)cc(C(=O)O)cc2Cl)n1-c1ccc(F)cc1` [3-chloro-4-[({5-[1-(3,4-dichlorophenyl)-1-methylethyl]-1-(4-fluorophenyl)-1H-imidazol-2-yl}thio)methyl]-5-fluorobenzoic acid], the values for the concentration for a half-maximal effect (EC50) in assay [1] and in assay [2] were 0.1 to 1 µM and < 0.1 µM, respectively.

`COc1cc(-n2c(C(C)(C)c3ccc(S(N)(=O)=O)c(Cl)c3)cnc2SCc2ccc(C(=O)NCCS(=O)(=O)O)cc2F)ccc1F` [2-{[(4-{[(5-{1-[4-(aminosulfonyl)-3-chlorophenyl]-1-methylethyl}-1-[4-fluoro-3-(methyloxy)phenyl]-1H-imidazol-2-yl)thio]methyl}-3-fluorophenyl)carbonyl]amino}ethanesulfonic acid]: the concentration for a half-maximal effect (EC50) in assay [1] and in assay [2] was < 0.1 µM each time.

Consider `COc1cc(-n2c(C(C)(C)c3ccc(S(N)(=O)=O)c(Cl)c3)cnc2SCc2ccc(Cl)c(-c3nnn[nH]3)c2)ccc1F` [2-chloro-4-(1-{2-({[4-chloro-3-(1H-tetrazol-5-yl)phenyl]methyl}thio)-1-[4-fluoro-3-(methyloxy)phenyl]-1H-imidazol-5-yl}-1-methylethyl)benzenesulfonamide], for which the half-maximal effective concentration (EC50) in assay [1] and in assay [2] was 0.1 to 1 µM throughout.

For the compound `COc1ccc(C(C)(C)c2cnc(SCc3cc(-c4nnn[nH]4)c(Cl)cc3Cl)n2-c2ccc(F)cc2)cc1Cl` [5-[2,4-dichloro-5-({[5-{1-[3-chloro-4-(methyloxy)phenyl]-1-methylethyl}-1-(4-fluorophenyl)-1H-imidazol-2-yl]thio}methyl)phenyl]-1H-tetrazole], the EC50 is 0.1 to 1 µM in assay [1] and < 0.1 µM in assay [2].

Take `COc1c(Cl)cc(C(C)(C)c2cnc(SCc3c(F)cccc3Cl)n2-c2ccc(F)cc2)cc1Cl` [2-{[(2-chloro-6-fluorophenyl)methyl]thio}-5-{1-[3,5-dichloro-4-(methyloxy)phenyl]-1-methylethyl}-1-(4-fluorophenyl)-1H-imidazole]: the half-maximal effective concentration (EC50) in assay [1] and in assay [2] was < 0.1 µM throughout.

For `COc1cc(-n2c(C(C)(C)c3ccc(S(N)(=O)=O)c(Cl)c3)cnc2SCc2ccc(S(=O)(=O)NC(=O)NN3CCOCC3)cc2Cl)ccc1F` [4-{[(5-{1-[4-(aminosulfonyl)-3-chlorophenyl]-1-methylethyl}-1-[4-fluoro-3-(methyloxy)phenyl]-1H-imidazol-2-yl)thio]methyl}-3-chloro-N-[(morpholin-4-ylamino)carbonyl]benzenesulfonamide], the EC50 in assay [1] is < 0.1 µM; in assay [2], 0.1 to 1 µM.

Consider `COc1cc(C(C)(C)c2cnc(SCc3c(F)cc(OCCNC(=N)N)cc3F)n2-c2ccc(F)cc2)ccc1F` [1-(2-{[3,5-difluoro-4-({[5-{1-[4-fluoro-3-(methyloxy)phenyl]-1-methylethyl}-1-(4-fluorophenyl)-1H-imidazol-2-yl]thio}methyl)phenyl]oxy}ethyl)guanidine], for which the EC50 in assay [1] and in assay [2] was < 0.1 µM in each case.

For the compound `COc1cc(C(C)(C)c2cnc(SCc3ccc(C(=O)O)cc3F)n2-c2ccc(F)cc2)ccc1Cl` [4-({[5-{1-[4-chloro-3-(methyloxy)phenyl]-1-methylethyl}-1-(4-fluorophenyl)-1H-imidazol-2-yl]thio}methyl)-3-fluorobenzoic acid], the EC50 in assay [1] and in assay [2] was < 0.1 µM each time.

`COc1cc(C(C)(C)c2cnc(SCc3c(F)cc(OCc4nnn[nH]4)cc3F)n2-c2ccc(F)cc2)ccc1Cl` [5-({[4-({[5-{1-[4-chloro-3-(methyloxy)phenyl]-1-methylethyl}-1-(4-fluorophenyl)-1H-imidazol-2-yl]thio}methyl)-3,5-difluorophenyl]oxy}methyl)-1H-tetrazole]: the EC50 in assay [1] and in assay [2] was < 0.1 µM throughout.

In the case of `CC(C)(c1ccc(C(F)F)c(F)c1)c1cnc(SCc2ccc(S(=O)(=O)NC(=O)NN3CCCC3)cc2Cl)n1-c1ccc(F)cc1` [3-chloro-4-({[5-{1-[4-(difluoromethyl)-3-fluorophenyl]-1-methylethyl}-1-(4-fluorophenyl)-1H-imidazol-2-yl]thio}methyl)-N-[(pyrrolidin-1-ylamino)carbonyl]benzenesulfonamide], the EC50 in assay [1] and in assay [2] was 0.1 to 1 µM in each case.

Take `COc1ccc(C(C)(C)c2cnc(SCc3ccc(F)c(S(N)(=O)=O)c3)n2-c2ccc(F)cc2)cc1Cl` [5-({[5-{1-[3-chloro-4-(methyloxy)phenyl]-1-methylethyl}-1-(4-fluorophenyl)-1H-imidazol-2-yl]thio}methyl)-2-fluorobenzenesulfonamide]: the EC50 in assay [1] and in assay [2] was < 0.1 µM in each case.

As for `CC(C)(c1ccc(Cl)c(Cl)c1)c1cnc(SCc2ccc(S(=O)(=O)NC(=O)NN3CCCC3)cc2Cl)n1-c1ccc(F)cc1` [3-chloro-4-[({5-[1-(3,4-dichlorophenyl)-1-methylethyl]-1-(4-fluorophenyl)-1H-imidazol-2-yl}thio)methyl]-N-[(pyrrolidin-1-ylamino)carbonyl]benzenesulfonamide], the EC50 in assay [1] is 1 to 10 µM; in assay [2], 0.1 to 1 µM.

On to `CC(C)(c1ccc(Cl)c(Cl)c1)c1cnc(SCc2c(F)cc(C(=O)O)cc2F)n1-c1ccc(F)cc1` [4-[({5-[1-(3,4-dichlorophenyl)-1-methylethyl]-1-(4-fluorophenyl)-1H-imidazol-2-yl}thio)methyl]-3,5-difluorobenzoic acid], for which the EC50 in assay [1] is 0.1 to 1 µM; in assay [2] it was < 0.1 µM.

On to `COc1cc(C(C)(C)c2cnc(SCc3ccc(S(=O)(=O)NC(=O)NN4CCCC4)cc3Cl)n2-c2ccc(F)cc2)ccc1S(N)(=O)=O` [4-({[5-{1-[4-(aminosulfonyl)-3-(methyloxy)phenyl]-1-methylethyl}-1-(4-fluorophenyl)-1H-imidazol-2-yl]thio}methyl)-3-chloro-N-[(pyrrolidine-1-ylamino)carbonyl]benzenesulfonamide], for which the EC50 in assay [1] and in assay [2] was 0.1 to 1 µM each time.

As for `COc1ccc(C(C)(C)c2cnc(SCc3c(Cl)cccc3Cl)n2-c2ccc(F)cc2)cc1OC` [5-{1-[3,4-bis(methyloxy)phenyl]-1-methylethyl}-2-{[(2,6-dichlorophenyl)methyl]thio}-1-(4-fluorophenyl)-1H-imidazole], the EC50 in assay [1] and in assay [2] was < 0.1 µM each time.
